Test results: patent US20160120864A1, “Novel Pyrrole Derivatives” (priority 2013, published 2016)
Counter-ions that a name gives are not always drawn.

What was measured:
physchem [1] = assay type: physicochemical; settings: for solubility: aqueous buffer, thermodynamic from solid, PBS pH 7.2; for Solubility in aqueous formulations compatible with intravenous dosing (in words): aqueous formulations at the desired concentrations
Method: PBS solutions for solubility and stability studies were prepared by dissolving 1 Oxoid™ tablet (obtained from Thermo Scientific) in deionised water (100 mL).
Solubility studies were performed by charging a vial with 5-10 mg of compound followed by the addition of PBS solution to achieve a concentration of 100 mg/ml. If solubility was not observed, the solution was diluted to concentrations of 50 mg/ml, 25 mg/ml and 4 mg/ml consecutively until complete solubility was observed.

pneumolysin = pneumolysin (Streptococcus pneumoniae serotype 2, UniProt Q04IN8); assay: Inhibition of the haemolytic activity of pneumolysin (sheep erythrocytes); assay type: cell-based
Chain of pneumolysin (Q04IN8 whole entry): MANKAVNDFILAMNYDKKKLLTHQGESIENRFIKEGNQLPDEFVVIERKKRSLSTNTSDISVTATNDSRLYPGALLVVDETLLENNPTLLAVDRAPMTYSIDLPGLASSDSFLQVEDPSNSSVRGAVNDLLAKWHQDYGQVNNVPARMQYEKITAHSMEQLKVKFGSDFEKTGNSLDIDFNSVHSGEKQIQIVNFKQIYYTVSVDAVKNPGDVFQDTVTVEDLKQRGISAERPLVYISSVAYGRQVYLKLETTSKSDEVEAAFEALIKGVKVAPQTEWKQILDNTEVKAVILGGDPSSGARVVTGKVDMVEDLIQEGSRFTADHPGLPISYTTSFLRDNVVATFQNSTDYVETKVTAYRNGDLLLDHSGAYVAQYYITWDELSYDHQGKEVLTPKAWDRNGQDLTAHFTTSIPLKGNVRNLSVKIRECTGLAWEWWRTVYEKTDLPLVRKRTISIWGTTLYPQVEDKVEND
Method: A. Primary In Vitro Assay: Inhibition of the Haemolytic Activity of Pneumolysin
The basis of this assay is that when pneumolysin is added to red blood cells, it induces their lysis and leads to the release of haemoglobin. In the presence of an inhibitory compound, pneumolysin-induced lysis is abolished, the red blood cells pellet at the bottom of the microtitre plate well and the supernatant is clear. However, if the compound is not inhibitory, the red blood cells are lysed and haemoglobin is released into the supernatant.
Test compound solutions (typically at 5 mM in DMSO) were diluted 1:1 in 100% DMSO. The compounds were then two-fold serially diluted in 100% DMSO across 11 wells of 96-well round-bottomed microtitre plate. PBS was then added to all the wells to achieve a 1:10 dilution of the compound in PBS. Pneumolysin was then added at a concentration equal to its LD100. Plates were then incubated at 37° C. for 30-40 min. After the incubation period, an equal volume of 4% (v/v) sheep erythrocyte suspension was added to each well and the plates incubated again at 37° C., for at least 30 min. […] Following the incubation with the erythrocytes, the Absorbance at 595 nm of each well was measured and the data used to determine the IC50 for each test compound. The IC50 values were determined using non-linear regression curve fitting. […]

physchem [2] = assay type: physicochemical; settings: buffer; PBS, 37.5° C.; read-out: Chemical stability in aqueous formulation (t½) (converted)
Method: (§1) Stability studies were carried out by dissolving 1-2 mg of compound in DMSO (1 mL) followed by addition of 0.4 mL of the resulting solution to stirred PBS solution (9.6 mL) at 37.5° C. A sample (ca. 0.5 mL) was immediately taken for HPLC analysis. Further samples were then taken for analysis at various timepoints thereafter. Half-lives were determined from the decrease in concentration of compound with respect to time.
as §1, with “performed” for “carried out”, “ml)” for “mL)”, “ml” for “mL”, “PBS” for “PBS solution”, “(-j” for “(ca.”, “time-points” for “timepoints”

[3] = assay type: in vitro ADME; settings: mouse plasma, 37° C., starting 10 μM
Method: The samples were then analysed by LC-MS/MS to obtain the amount of active compound appearing and prodrug derivative remaining over time.
The prodrug derivative of the invention was assessed in mouse plasma stability assay at a concentration of 10 μM. Test compounds were diluted in DMSO to a final stock concentration of 10 mM. For the purpose of the assay, the stocks prepared were further diluted in DMSO to a concentration of 400 μM and 5 μL were added to 195 μL of mouse plasma (pH 7.4) and then incubated at 37° C. The final concentration of DMSO in the plate was 2.5% (v/v). Reactions were terminated at 0, 15, 30, 60 and 120 min after incubation by adding 400 μL of acetonitrile containing 0.55 μM metoprolol and 1% (v/v) formic acid. The plate was then centrifuged at 3000 rpm, for 45 min, at 4° C. 80 μL of supernatant were transferred into a conical bottom 96 well glass coated plate. 40 μL of water were added prior to analysis for prodrug derivative and active species by LC-MS/MS. This assay was performed by a contract research organisation, Cyprotex Discovery Limited, UK, at the request of the inventors at Leicester.
The quantification of the prodrug compound remaining and the parent active compound appearing was performed as follows:
(1) The parent active compound was quantified using a 6 point calibration curve prepared in deactivated mouse plasma. (2) The percentage of prodrug compound remaining at each time point relative to 0 min sample was calculated from LC-MS/MS peak area ratios (compound peak area/internal standard peak area). This percentage was then used to determine the concentration of the prodrug compound at each time point in reference to the starting concentration (10 μM) at time 0 min.

COc1ccc(-n2c(C(=O)N3CCN(C)CC3)c(O)c(O)c2C(=O)N2CCN(C)CC2)cc1 [UL7-001, (3,4-Dihydroxy-1-(4-methoxyphenyl)-1H-pyrrole-2,5-diyl)bis((4-methylpiperazin-1-yl)methanone)]
solubility (physchem [1]): ≥ 100 mg/mL
Solubility in aqueous formulations compatible with intravenous dosing (in words) (physchem [1]): readily soluble
IC50 (pneumolysin): 0.3 µM
half-life (physchem [2]): < 0.5 h

COc1ccc(-n2c(C(=O)N3CCN(C)CC3)c(OC(=O)C(C)C)c(OC(=O)C(C)C)c2C(=O)N2CCN(C)CC2)cc1 [UL7-002, 1-(4-Methoxyphenyl)-2,5-bis(4-methylpiperazine-1-carbonyl)-1H-pyrrole-3,4-diyl bis(2-methylpropanoate)dihydrochloride]
solubility (physchem [1]): ≥ 100 mg/mL
Solubility in aqueous formulations compatible with intravenous dosing (in words) (physchem [1]): readily soluble
IC50 (pneumolysin): 6.8 µM
Prodrug (UL7-002) concentration remaining, t0 min. ([3]; 0 min): 10.00 µM
Prodrug (UL7-002) concentration remaining, t15 min. ([3]; 15 min): 0.00 µM
Prodrug (UL7-002) concentration remaining, t30 min. ([3]; 30 min): 0.01 µM
Prodrug (UL7-002) concentration remaining, t60 min. ([3]; 60 min): 0.00 µM
Prodrug (UL7-002) concentration remaining, t120 min. ([3]; 120 min): 0.00 µM
half-life (physchem [2]): 47 h
